The experiment relates to herpes viral infections. As to the kind of experiment: treating herpes outbreaks with loperamide taken by mouth. The following applies: herpes outbreak; patient taking loperamide. It counts as in vivo. An excerpt: Referring to FIG. 1, the present invention may include a new use of loperamide 100 as an anti-viral agent. Herpes, which erupts during stress and may include repeated flare-ups over, sometimes, weeks may be treated with the new use of loperamide 100 disclosed herein, which tends to eliminate this recycling when taken at every flare-up. Specifically, the new use 100 of loperamide as an anti-viral agent may have the following steps: at the onset of symptoms, the user takes the recommended amount at the recommended time intervals, such as two 2 mg loperamide tablets four or five times a day, in step 110; if pain persists, the user may review the dosage, in step 120; after 72 hours, when pain has subsided and blisters are gone or only thin scabs, the patient may discontinue use in step 130; magnesium hydroxide may be used for bowel function during treatment, in step 140; and in the case of a new flare-up, the user-patient may repeat the dosage cycle in step 150.

Each structure is given as a SMILES string. A value given as a limit tells only on which side of the number the result lay.

Take `CN(C)C(=O)C(CCN1CCC(O)(c2ccc(Cl)cc2)CC1)(c1ccccc1)c1ccccc1` [loperamide]: the “effect on the virus's activity” value was “stop the virus's activity”, the “time to full recovery” value was “three” and the “time to stop the pain” value is not above 30 min.

Values taken from patent US20200155532A1, “METHOD FOR TREATING VIRAL INFECTIONS WITH LOPERAMIDE” (priority 2018, published 2020).
